Columns and labels:
[1] = system: C57BL/6 splenocytes, macrophages (F4/80+); assay: Lectin-conjugated NR-PS particle uptake by splenocyte populations (Example 8): macrophages; type: cell-based, mouse; conditions: lectin 100 μg/ml; live cells
Description: (§1) Splenocytes were isolated from C57BL/6 mice and cultured as described above, at a density of 2×10^6 cells/ml in a 96 well U-bottomed plate, in 100 μl of complete RPMI 1640 medium. Cells were incubated for 5, 10 or 30 minutes at 37° C. with NR-PS particles (5, 50 or 100 μg/ml) or NR-PS particles (5, 50 or 100 μg/ml) conjugated with biotinylated UEA-1 (100 μg/ml), biotinylated SBA (100 μg/ml), biotinylated PHA-E ([…]), biotinylated PHA-L (100 μg/ml) or biotinylated DSL (100 μg/ml). Cells were transferred to FACS tubes, washed in FACS buffer, centrifuged at 1200 rpm for 5 minutes (×3) and resuspended in 100 μl FACS buffer. Cells were then incubated with Fc Block™ (2.5 μg/ml; BD Pharmingen, San Diego, Calif.) for 10 minutes. Determination of cell types was achieved by labelling characteristic cell surface markers with fluorescently-labelled antibodies—T cells were determined as being CD3^+, dendritic cells CD11c^+, macrophages F4/80^+, granulocytes Gr1^+ and B cells CD19^+. Cells were incubated on ice for 30 minutes in the dark and then washed in FACS buffer and centrifuged at 1200 rpm for 5 minutes (×3). After washing, cells were resuspended in 200 μl of FACS buffer.
(§2) A CyAn™ ADP flow cytometer (Beckman Coulter, Inc., Miami, Fla.), Summit™ software (Dako North America, Inc., Carpinteria, Calif.) and FlowJo™ software (Treestar, Inc., Ashland, Oreg.) were used to analyze the uptake of particles by various cells populations. Live cells were gated on by their FSC and SSC properties in order to roughly estimate the degree of cell death. Particle uptake was calculated for each cell subtype from the data in FIGS. 11A-11D, showing the percentages of both cell marker- and particle-positive cells within the live cell population. Unstimulated cells were used as controls.

[2] = system: C57BL/6 splenocytes, granulocytes (Gr1+); assay: Lectin-conjugated NR-PS particle uptake by splenocyte populations (Example 8): granulocytes; type: cell-based, mouse; conditions: lectin 100 μg/ml; live cells
Description: as §1, §2

[3] = system: C57BL/6 splenocytes, dendritic cells (CD11c+); assay: Lectin-conjugated NR-PS particle uptake by splenocyte populations (Example 8): dendritic cells; type: cell-based, mouse; conditions: lectin 100 μg/ml; live cells
Description: as §1, §2

[4] = system: C57BL/6 splenocytes, B cells (CD19+); assay: Lectin-conjugated NR-PS particle uptake by splenocyte populations (Example 8): B cells; type: cell-based, mouse; conditions: lectin 100 μg/ml; live cells
Description: as §1, §2

[5] = system: C57BL/6 splenocytes, T cells (CD3+); assay: Lectin-conjugated NR-PS particle uptake by splenocyte populations (Example 8): T cells; type: cell-based, mouse; conditions: lectin 100 μg/ml; live cells
Description: as §1, §2

[6] = system: Bone marrow-derived macrophages (iBMMs); assay: Flow cytometry uptake of lectin-conjugated NR-PS particles by live iBMMs (Example 6); type: cell-based; conditions: 10 minute incubation; lectin 100 μg/ml
Description: (§3) C57BL/6 BMDCs and iBMMs were isolated and cultured as described above at a density of 1×10^6 cells/ml in a 96 well U-bottomed plate in 100 μl complete RPMI 1640 medium with 10 ng/ml GM-CSF. Cells were stimulated for 10 or 30 minutes at 37° C. with NR-PS particles (5, 50 or 100 μg/ml) or NR-PS particles (5, 50 or 100 μg/ml) conjugated with biotinylated UEA-1 (100 μg/ml), biotinylated SBA (100 μg/ml), biotinylated PHA-E (100 μg/ml), biotinylated PHA-L (100 μg/ml) or biotinylated DSL (100 μg/ml). Cells were then scraped into FACS tubes, washed in FACS buffer, centrifuged at 1200 rpm for 5 minutes (×3) and resuspended in 200 μl of FACS buffer.
(§4) A FACSCanto™ II flow cytometer (BD Biosciences, San Jose, Calif.), FACSDiva™ software (BD Biosciences, San Jose, Calif.) and FlowJo™ software (Treestar, Inc., Ashland, Oreg.) were used to analyze the uptake of particles by various cell populations. Live cells were gated on by their FSC and SSC properties in order to estimate the degree of cell death. Particle uptake was quantified by determining the percentage of live cells taking up particles. Unstimulated cells were used as controls.

C57BL/6 BMDCs = assay: Flow cytometry uptake of lectin-conjugated NR-PS particles by live BMDCs (Example 6); type: cell-based, mouse; conditions: 30 minute incubation; lectin 100 μg/ml
Description: as §3, §4

[7] = system: IL-1β production by bone marrow-derived dendritic cells (BMDCs); assay: IL-1β ELISA on supernatants of BMDCs incubated with particles; type: cell-based, mouse; conditions: C57BL/6 BMDCs; LPS 1 ng/ml; serial dilutions SC-PS 31.25 μg/ml to 1 mg/ml with lectin 1.56 to 50 μg/ml; vs unconjugated SC-PS
Description: (§5) BMDCs were isolated and cultured as described in Example 2 at a density of 6.25×10^5 cells/ml in 96 well U-bottomed microplates. Cells were stimulated with a Toll-like receptor (TLR) ligand (LPS or Pam2CSK4) for 6 hours. Cells were then incubated with either medium, alum/SC-PS particles, alum/SC-PS particles conjugated with UEA-1, alum/SC-PS particles conjugated with UEA-1 mimetic or with UEA-1 alone for 24 hours. After incubation, supernatants from BMDCs were collected and cytokine concentrations measured by ELISA. Antibody pairs specific for each cytokine were used for immunoassaying. The following cytokines were measured by immunoassay: IL-1α, IL-1β.
(§6) Capture antibodies were obtained from BD Pharmingen (San Diego, Calif.), BioLegend (San Diego, Calif.) and R&D Systems, Inc. (Minneapolis, Minn.) and prepared according to the manufacturer's specifications (see Table 2) and a volume of 40 μl/well added to high-binding 96 well ELISA plates. Plates were then incubated for 2 hours at 37° C. or overnight at 4° C. After incubation, plates were washed in PBS-T (×3) and tapped dry. Plates were then blocked with the appropriate blocking solution (see Table 2) and incubated for 2 hours at 37° C. After incubation plates were washed in PBS-T (×3) and tapped dry. Supernatants were transferred from cell culture plates to fresh 96 well plates. All supernatants were stored at −20° C. when not in use. Cell supernatants were applied to plates at the indicated dilutions (see Table 2). A blank triplicate was left on each plate containing the diluent as a blank. Standards were prepared at the starting concentration in the recommended diluent as specified by the manufacturer and transferred to a 96 well plate and serial dilutions (1:2) performed (see Table 2). All standards and samples were applied to plates at 40 μl/well total volume for incubation overnight at 4° C. After incubation plates were washed with PBS-T (×5) and tapped dry. […] Plates were then stopped by the addition of 20 μl/well of 1M H2SO4 and read. […]

[8] = system: IL-1α production by bone marrow-derived dendritic cells (BMDCs); assay: IL-1α ELISA on supernatants of BMDCs incubated with particles; type: cell-based, mouse; conditions: C57BL/6 BMDCs; LPS 1 ng/ml; serial dilutions SC-PS 31.25 μg/ml to 1 mg/ml with lectin 1.56 to 50 μg/ml; vs unconjugated SC-PS
Description: as §5, §6

## NR-PS particles conjugated with biotinylated PHA-L: Nile Red streptavidin-coated polystyrene particles conjugated with biotinylated Phaseolus vulgaris leukoagglutinin
[1]
  percentage of macrophages found to have taken up particles: 89.9%
[2]
  percentage of granulocytes found to have taken up particles: 80.7%
[3]
  percentage of dendritic cells found to have taken up particles: 79.0%
[4]
  percentage of B cells found to have taken up particles: 80.5%
[5]
  percentage of T cells found to have taken up particles: 62.4%
[6]
  percentage of live iBMMs found to have taken up particles: 79.6%
C57BL/6 BMDCs
  percentage of live BMDCs found to have taken up particles: 89.6%

## NR-PS particles conjugated with biotinylated PHA-E: Nile Red streptavidin-coated polystyrene particles conjugated with biotinylated Phaseolus vulgaris erthyroagglutinin
[1]
  percentage of macrophages found to have taken up particles: 79.4%
[2]
  percentage of granulocytes found to have taken up particles: 74.0%
[3]
  percentage of dendritic cells found to have taken up particles: 67.7%
[4]
  percentage of B cells found to have taken up particles: 45.5%
[5]
  percentage of T cells found to have taken up particles: 18.1%
[6]
  percentage of live iBMMs found to have taken up particles: 91.0%
C57BL/6 BMDCs
  percentage of live BMDCs found to have taken up particles: 89.7%

## NR-PS particles conjugated with biotinylated SBA: Nile Red streptavidin-coated polystyrene particles conjugated with biotinylated soybean agglutinin
[1]
  percentage of macrophages found to have taken up particles: 84.8%
[2]
  percentage of granulocytes found to have taken up particles: 65.6%
[3]
  percentage of dendritic cells found to have taken up particles: 56.3%
[4]
  percentage of B cells found to have taken up particles: 70.8%
[5]
  percentage of T cells found to have taken up particles: 6.4%
[6]
  percentage of live iBMMs found to have taken up particles: 93.4%
C57BL/6 BMDCs
  percentage of live BMDCs found to have taken up particles: 83.2%

B1: PNA: SC-PS particles conjugated with biotinylated peanut agglutinin (conjugate, UniProt P02872 24-273, looked up)
Galactose-binding lectin: AETVSFNFNSFSEGNPAINFQGDVTVLSNGNIQLTNLNKVNSVGRVLYAMPVRIWSSATGNVASFLTSFSFEMKDIKDYDPADGIIFFIAPEDTQIPAGSIGGGTLGVSDTKGAGHFVGVEFDTYSNSEYNDPPTDHVGIDVNSVDSVKTVPWNSVSGAVVKVTVIYDSSTKTLSVAVTNDNGDITTIAQVVDLKAKLPERVKFGFSASGSLGGRQIHLIRSWSFTSTLITTTRRSIDNNEKKIMNMASA
modifications: biotinylated, on streptavidin polystyrene particles
notes: SC-PS particles conjugated with biotinylated peanut agglutinin
[7]
  TLR-4 agonist-primed IL-1β production: increased
[8]
  TLR-4 agonist-primed IL-1α production: increased IL-1α production across all five of the serial dilutions

Reference: patent US20130004579A1, “Use of Plant Lectins to Target Leukocytes” (priority 2011, published 2013)
